The record followed here is publication PMC8078834 (FASEB journal : official publication of the Federation of …, 2021).

The assay deals with myeloperoxidase (MPO) (Homo sapiens, UniProt P05164). Kind of assay: microscale thermophoresis. In kind it is binding. In general terms: In MST a laser heats a spot of the sample, and binding alters the fluorescence response.
myeloperoxidase (MPO), sequence (P05164 165-273): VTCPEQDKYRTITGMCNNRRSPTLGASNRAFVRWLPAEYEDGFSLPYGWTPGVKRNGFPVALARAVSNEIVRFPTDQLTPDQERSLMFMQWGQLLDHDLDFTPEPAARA
myeloperoxidase (MPO), sequence (P05164 279-745): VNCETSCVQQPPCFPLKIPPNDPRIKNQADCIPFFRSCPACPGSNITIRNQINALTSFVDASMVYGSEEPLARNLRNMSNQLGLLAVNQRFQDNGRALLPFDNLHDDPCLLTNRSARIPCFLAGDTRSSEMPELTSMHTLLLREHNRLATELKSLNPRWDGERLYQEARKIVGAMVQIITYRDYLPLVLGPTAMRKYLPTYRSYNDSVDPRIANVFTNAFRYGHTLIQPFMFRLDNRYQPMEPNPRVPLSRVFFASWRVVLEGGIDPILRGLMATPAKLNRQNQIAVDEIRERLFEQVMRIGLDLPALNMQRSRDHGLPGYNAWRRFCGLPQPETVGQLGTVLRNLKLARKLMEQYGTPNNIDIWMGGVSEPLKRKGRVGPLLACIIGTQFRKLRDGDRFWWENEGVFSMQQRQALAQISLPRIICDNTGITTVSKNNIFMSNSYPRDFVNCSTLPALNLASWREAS

A word on the Kd: it is a measure of binding affinity in units of concentration. Higher therefore signals a looser complex. `c1ccc2[nH]ccc2c1` [indole, 1H-indole] registered a dissociation constant (Kd) of 272 ± 77.4 µM.
